Test results: patent publication US20170290844A1, “Methods of Treatment” (GlaxoSmithKline Intellectual Property Development Limited, priority 2014, published 2017)

How the values were obtained:
[1] = tested on: T-cell; test: T-cell chemotaxis in response to supernatants from HRV16 infected COPD BECs; type: cell-based; conditions: supernatants of COPD BECs 72 h post HRV16 infection
[2] = tested on: COPD BECs infected with HRV16; test: Mucociliary responses of BECs infected with HRV16 (real-time PCR, AB/PAS staining, β-tubulin IV immunofluorescence); type: cell-based, human
Description: (§1) Air-liquid interface (ALI) cultured human bronchial epithelial cells (BECs) from chronic obstructive pulmonary disease (COPD) donors were either bought fully differentiated (Epithelix Sarl, Cat. No. EP10MD) or cultured in-house using the Pneumocult method (StemCell Technologies, Cat. No. 05001), in a 24-well format. Primary cells for in-house ALI cultures were obtained from Epithelix Sarl, Cat. No. EP18AB.
(§2) Prior to infection, ALI cells were washed twice in warm PBS (with Ca2^+/Mg2^+). Subsequently, human rhinovirus 16 was applied at multiplicity of infection (MOI) of 1 or 5 in a total volume of 50 μl culture medium. The virus was allowed to attach for 1h at room temperature with gentle agitation. Consequently, the virus was washed off with warm PBS (with Ca2^+/Mg2^+) and cells were further cultured at 37° C. for the indicated amount of time either with or without the addition of a rsecretase inhibitor CompA (S)-2-[2-(3,5-difluorophenyl)-acetylamino]-N—((S)-1-methyl-2-oxo-5-phenyl-2,3-dihydro-1H-benzo[e][1,4]diazepin-3-yl)-propionamide, (Calbiochem Cat. No. 565790).
Ribonucleic acid (RNA) from ALI cultured COPD BECs was prepared by lysing the cells in RLT buffer supplied with Promega Total RNA Isolation System (Promega, Cat. No. Z3505). RNA was then extracted by using the manufacturer's protocol with automation. Murine total lung RNA was isolated by first homogenisation of the lung in 1 ml TRIZOL™ reagent, then subsequent phase separation with 1-bromo-3-chloropropane (BCP) (MRC, Cat. No. BP151). The aqueous phase was then mixed with 70% ethanol and final RNA extraction was achieved using the Promega Total RNA Isolation System with automation. Complementary deoxyribonucleic acid (cDNA) was synthesised by reverse transcription using MultiScribe™ Reverse Transcriptase and random primers according to the manufacturer's protocol (Applied Biosystems, Cat. No. 4368814). Amplification of specific targets was performed by quantitative real-time polymerase chain reaction (qRT-PCR) using the TaqMan® gene expression system (Applied Biosystems Cat. No. 4369510) and ready to use TaqMan® primer/probes (see Table 1). Global gene expression analysis was performed by microarray using the Human Genome U133 Plus 2.0 genechip and was done either by Epistem Ltd. (Manchester, UK) or Expression Analysis, Inc. (Durham, US). Data analysis was performed using Array Studio software (OmicSoft Corporation, Cary, US) with GC-RMA normalisation algorithm. Probes with intensities less than the geometric mean of 64 were discarded. […]
ALI cultured BECs were fixed in 4% paraformaldehyde (PFA) overnight. Mucus load was assessed by histological sections with Alcian Blue/Periodic Acid Schiff (AB/PAS) stainings and were performed by the GSK PTS histological core facility. […]

[3] = tested on: COPD bronchial epithelial cells infected with HRV16; test: Genome-wide transcriptional analysis by microarray of COPD BECs infected with HRV16; type: cell-based, human; conditions: 72 h HRV16 infection
Description: as §1, §2
(§3) Ribonucleic acid (RNA) from ALI cultured COPD BECs was prepared by lysing the cells in RLT buffer supplied with Promega Total RNA Isolation System (Promega, Cat. No. Z3505). RNA was then extracted by using the manufacturer's protocol with automation. Murine total lung RNA was isolated by first homogenisation of the lung in 1 ml TRIZOL™ reagent, then subsequent phase separation with 1-bromo-3-chloropropane (BCP) (MRC, Cat. No. BP151). The aqueous phase was then mixed with 70% ethanol and final RNA extraction was achieved using the Promega Total RNA Isolation System with automation. […] Amplification of specific targets was performed by quantitative real-time polymerase chain reaction (qRT-PCR) using the TaqMan® gene expression system (Applied Biosystems Cat. No. 4369510) and ready to use TaqMan® primer/probes (see Table 1). […]

[4] = tested on: COPD BECs infected with HRV16; test: Gene expression by real-time PCR in ALI cultures of COPD BECs infected with HRV16; type: cell-based, human; conditions: 24 h post HRV16 infection
Description: as §1
(§4) Prior to infection, ALI cells were washed twice in warm PBS (with Ca2^+/Mg2^+). Subsequently, human rhinovirus 16 was applied at multiplicity of infection (MOI) of 1 or 5 in a total volume of 50 μl culture medium. The virus was allowed to attach for 1h at room temperature with gentle agitation. […]
Ribonucleic acid (RNA) from ALI cultured COPD BECs was prepared by lysing the cells in RLT buffer supplied with Promega Total RNA Isolation System (Promega, Cat. No. Z3505). […] Amplification of specific targets was performed by quantitative real-time polymerase chain reaction (qRT-PCR) using the TaqMan® gene expression system (Applied Biosystems Cat. No. 4369510) and ready to use TaqMan® primer/probes (see Table 1). […]

[5] = tested on: ALI cultured COPD BECs infected with HRV16; test: Protein secretion of immune mediators in supernatants of ALI cultured COPD BECs (MSD/ELISA); type: cell-based, human; conditions: 72 h post HRV16 infection
Description: as §1, §4
Detection of secreted proteins was done on the Meso Scale Discovery (MSD®) platform according to the manufacturer's protocol. Chemokines CXCL6 and CCL5 were detected by enzyme linked immunosorbent assay (ELISA) kits both bought from R&D systems, Cat. Nos. DY333 and DRN00B, respectively. […] Analytical flow cytometry was performed using the FACSCanto II (Beckton Dickinson) and analysed using FlowJo software (Tree Star, Inc. Ashland, US).

[6] = tested on: healthy neutrophil; test: Neutrophil chemotaxis in response to supernatants from HRV16 infected COPD BECs; type: cell-based; conditions: supernatants of COPD BECs 72 h post HRV16 infection, versus untreated infected samples
[7] = tested on: female Balb/c mice following HRV1B inoculation; test: Inflammation and mucus gene expression in lungs of mice following HRV1B inoculation; type: in vivo; conditions: 8 h post infection, 0.5 mg/kg
Method: For in-vivo experiments, 8 weeks old female BALB/c mice were intra-nasally infected with 1×10^8 plaque forming units (PFUs) of human rhinovirus serotype 1b (HRV1b) virus in a total of 50 μl and either treated or not with a γ-secretase inhibitor CompB N2-[(2S)-2-(3,5-difluorophenyl)-2-hydroxyethanoyl]-N1-[(7S)-5-methyl-6-oxo-6,7-dihydro-5H-dibenzo[b,d]azepin-7-yl]-L-alaninamide at a concentration of 0.5 mg/kg. To assess inflammation to the lung, broncho-alveolar lavage fluid (BALF) was collected and cellular infiltrates analysed on the Sysmex cell analysis system (Milton Keynes, UK). Subsequently, whole lung was placed into 1 ml of TRIZOL™ reagent for downstream gene expression analysis.
as §3, with “BP151).” for “BP151). The aqueous phase was then mixed with 70% ethanol and final RNA extraction was achieved using the Promega Total RNA Isolation System with automation.”

[8] = healthy and COPD human BECs at ALI

| SMILES | T-cell chemotaxis [1] | ciliation ([2]; COPD BECs, 72 h, ciliated cell genes and β-tubulin IV staining) | mucus production ([2]; COPD BECs, 72 h, goblet cell genes and AB/PAS staining) | loss of ciliation [2, 8] | mucus secretion [2, 8] | cilia associated genes (expression) [3] | interferon response [3] | upregulation of goblet cell associated genes [3] | gene expression of T-cell associated chemokines [4] | gene expression of neutrophilic chemokines [4] | secretion of T-cell associated chemokines [5] | secretion of neutrophilic chemokines [5] | neutrophil chemotaxis [6] | mucin gene expression (Muc5ac) in lungs [7] | recruitment of neutrophils into the lungs (BAL) [7] |
| --- | --- | --- | --- | --- | --- | --- | --- | --- | --- | --- | --- | --- | --- | --- | --- |
| C[C@H](NC(=O)Cc1cc(F)cc(F)c1)C(=O)N[C@H]1N=C(c2ccccc2)c2ccccc2N(C)C1=O [CompA, (S)-2-[2-(3,5-difluorophenyl)-acetylamino]-N—((S)-1-methyl-2-oxo-5-phenyl-2,3-dihydro-1H-benzo[e][1,4]diazepin-3-yl)-propionamide] | unaltered | restores ciliation | inhibits mucus production | prevents the loss of ciliation | reduces mucus secretion | restores cilia associated genes | left unaltered | inhibits upregulation of goblet cell associated genes | less affected | transcriptional inhibition | less affected | reduced secretion | reduced |  |  |
| C[C@H](NC(=O)[C@@H](O)c1cc(F)cc(F)c1)C(=O)N[C@@H]1C(=O)N(C)c2ccccc2-c2ccccc21 [CompB, N2-[(2S)-2-(3,5-difluorophenyl)-2-hydroxyethanoyl]-N1-[(7S)-5-methyl-6-oxo-6,7-dihydro-5H-dibenzo[b,d]azepin-7-yl]-L-alaninamide] |  |  |  |  |  |  |  |  |  |  |  |  |  | reduced | reduced |
